Values joined by “and” are separate entries in the source; they are usually repeats but may differ in a detail not shown here. Equal entries are not always repeated.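 All cell lines were grown in 96-well plates and treated with compound for 48 hours. GI50 is the concentration that inhibits growth by half. TGI marks complete inhibition of growth.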
What was measured:
Experiment in all cases: NCI anticancer screen, dose series, 48 h
MDA-MB-231 breast = system: MDA-MB-231 breast
NCI/ADR-RES ovarian = system: NCI/ADR-RES ovarian
NCI-H23 lung = system: NCI-H23 lung
A498 renal = system: A498 renal
U251 CNS = system: U251 CNS
NCI-H522 lung = system: NCI-H522 lung
OVCAR-3 ovarian = system: OVCAR-3 ovarian
TK-10 renal = system: TK-10 renal
SN12C renal = system: SN12C renal
NCI-H460 lung = system: NCI-H460 lung

SMILES	GI50 (MDA-MB-231 breast)	TGI (MDA-MB-231 breast)	GI50 (NCI/ADR-RES ovarian)	TGI (NCI/ADR-RES ovarian)	GI50 (NCI-H23 lung)	TGI (NCI-H23 lung)	GI50 (A498 renal)	TGI (A498 renal)	GI50 (U251 CNS)	TGI (U251 CNS)	GI50 (NCI-H522 lung)	TGI (NCI-H522 lung)	GI50 (OVCAR-3 ovarian)	TGI (OVCAR-3 ovarian)	GI50 (TK-10 renal)	TGI (TK-10 renal)	GI50 (SN12C renal)	TGI (SN12C renal)	GI50 (NCI-H460 lung)	TGI (NCI-H460 lung)
C#C[C@]1(O)CC[C@H]2[C@@H]3CC=C4c5nc(Nc6ccccn6)sc5CC[C@]4(C)[C@H]3CC[C@@]21C	1 µM	3.11 µM	1.72 µM	6.1 µM	1.67 µM	6.64 µM	0.26 µM	1.19 µM	0.541 µM	2.13 µM	1.86 µM	4.12 µM	1.43 µM	3.29 µM	2.22 µM	5.08 µM	1.75 µM	3.62 µM	1.21 µM	2.83 µM
CC1(C)CCC(C)(C)c2cc(C(=O)Nc3ccc(C(=O)O)cc3)ccc21	–	> 95.2 µM	–	47.3 µM	–	37.8 µM	–	> 100 µM	–	> 100 µM	–	70.6 µM	–	40.4 µM	–	> 73.3 µM	–	> 100 µM	–	46.9 µM
CC(C)c1ccc2nc3ccc(C(=O)NCCN(C)C)cn3c(=O)c2c1	–	34.6 µM	–	62.9 µM	–	33.9 µM	–	30.8 µM	–	39.9 µM	–	29.3 µM	–	> 100 µM	–	34.3 µM	–	35.9 µM	–	33.7 µM
CC1(C)N=C(N)N=C(N)N1c1ccc(CCc2ccccc2)c(Cl)c1	1.09 µM	19.9 µM	37 µM	> 100 µM	0.0791 µM	15 µM	0.788 µM	15 µM	0.0427 µM	13 µM	0.236 µM	12.7 µM	0.281 µM	12.4 µM	1.96 µM	18.3 µM	0.0883 µM	13 µM	0.042 µM	11.6 µM
Fc1cccc(COc2ccc(Nc3ncnc4sc(-c5ccco5)cc34)cc2Cl)c1	> 25 µM	> 25 µM	> 25 µM	> 25 µM	> 25 µM	> 25 µM	> 25 µM	> 25 µM	> 25 µM	> 25 µM	> 25 µM	> 25 µM	> 25 µM	> 25 µM	> 25 µM	> 25 µM	> 25 µM	> 25 µM	> 25 µM	> 25 µM
COc1ccc(C(=O)N2c3ccccc3Sc3ccccc32)c(F)c1	3.52 µM	> 100 µM	0.517 µM	> 100 µM	3.42 µM	> 100 µM	0.33 µM	8.68 µM	0.615 µM	> 100 µM	0.403 µM	> 100 µM	0.418 µM	> 100 µM	10.4 µM	> 100 µM	1.94 µM	> 100 µM	0.485 µM	> 100 µM
Nc1cc2c3c(cccc3c1)NC2=O	–	> 100 µM	–	> 100 µM	–	> 100 µM	–	> 100 µM	–	> 100 µM	–	74 µM	–	> 100 µM	–	> 100 µM	–	> 100 µM	–	> 100 µM
C/C(=N\O)c1ccc(Nc2cc(-n3nnc4ccccc43)nc3ccccc23)cc1	2.53 µM	9.37 µM	5.22 µM	16.2 µM	8.98 µM	> 29.5 µM	7.25 µM	30.8 µM	6.68 µM	25.3 µM	6.39 µM	22.8 µM	16.3 µM	43.1 µM	3.14 µM	14.2 µM	4.67 µM	14.2 µM	4.08 µM	> 25.4 µM
CC1(C)O[C@H]2OC3CCC(=O)CC3(O)[C@H]2O1 (some centres not stated)	–	> 100 µM	–	> 100 µM	–	> 100 µM	–	> 100 µM	–	> 100 µM	–	> 100 µM	–	> 100 µM	–	> 100 µM	–	> 100 µM	–	> 100 µM
O=C(Nc1ccc(OC(F)(F)F)cc1)c1sccc1NCc1ccnc2ccccc12	1.98 µM	15.5 µM	2.81 µM	> 100 µM	2.18 µM	19.6 µM	3 µM	> 40.9 µM	6.92 µM	> 100 µM	3 µM	> 72 µM	4.89 µM	> 100 µM	4.87 µM	98.6 µM	2.97 µM	> 100 µM	4.01 µM	> 100 µM
CSc1ccc(/C=C2\CNC/C(=C\c3ccc(SC)cc3)C2=O)cc1	–	362 µM	150 µg/mL	150 µg/mL	21.2 µg/mL	> 130 µM and 83.6 µg/mL	35.2 µM and 33.2 µg/mL	159 µM and 118 µg/mL	34.8 µM and 21.7 µg/mL	83.7 µM and 65.4 µg/mL	22.3 µg/mL	> 161 µM and 63.5 µg/mL	47.4 µg/mL	> 136 µM and 150 µg/mL	–	> 165 µM	150 µg/mL	> 371 µM and 150 µg/mL	114 µg/mL	> 371 µM and 150 µg/mL
CS(=O)(=O)c1ccc(Cl)c([N+](=O)[O-])c1	16.1 µM	31.1 µM	20.8 µM	46.9 µM	16.5 µM	33.5 µM	38.6 µM	> 100 µM	15.2 µM	29 µM	16.5 µM	33.5 µM	17.8 µM	32.5 µM	18.9 µM	34.4 µM	13.8 µM	28.2 µM	18.3 µM	40.8 µM
Nc1cc(N)c2nc(-c3ccccc3)c(Oc3ccc(F)cc3)nc2c1	3.87 µM	28.8 µM	18.2 µM	36.1 µM	20.7 µM	40.2 µM	21.9 µM	39.6 µM	23.2 µM	78.6 µM	64.7 µM	> 100 µM	15.4 µM	41.7 µM	20.4 µM	46.3 µM	19.3 µM	52.7 µM	39.6 µM	> 100 µM
COc1cc2cc(Oc3ccc(NC(=O)c4cccc(C(F)(F)F)c4)cc3)c(C)nc2cc1OC	3.38 µM	46.6 µM	4.02 µM	> 100 µM	4.11 µM	> 100 µM	1.78 µM	65 µM	4.44 µM	> 100 µM	2.81 µM	> 100 µM	3.96 µM	45.5 µM	5.18 µM	> 100 µM	6.39 µM	> 100 µM	4.07 µM	> 100 µM
NS(=O)(=O)c1ccc(N2Cc3cc(Cl)ccc3OC3=C2C(=O)N(CC2CCCCC2)C3=O)cc1	1.11 µM	2.6 µM	1.74 µM	5.05 µM	1.64 µM	3.61 µM	1.26 µM	2.85 µM	1.3 µM	2.65 µM	0.273 µM	0.676 µM	0.207 µM	0.429 µM	1.22 µM	2.48 µM	1.01 µM	2.57 µM	1.72 µM	4.04 µM
S=C(N/N=C/c1cc(Cl)cc(Cl)c1)NC12CC3CC(CC(C3)C1)C2	3.99 µM	> 100 µM	7.2 µM	> 100 µM	10.6 µM	> 100 µM	2.19 µM	7.73 µM	3.18 µM	> 33.6 µM	> 63.4 µM	> 100 µM	6.03 µM	> 100 µM	4.44 µM	19.1 µM	–	> 100 µM	2.66 µM	> 100 µM
Nc1c(C(=O)Nc2ccc([As](=O)(O)O)cc2)cnc2nnnn12	–	> 100 µM	–	> 100 µM	–	> 100 µM	–	> 100 µM	–	> 100 µM	–	> 100 µM	–	> 100 µM	–	> 100 µM	–	> 100 µM	–	> 100 µM
CC(C)n1c(/C=C/[C@@H](O)C[C@@H](O)CC(=O)O)c(-c2ccc(F)cc2)c2ccccc21	0.219 µM	0.535 µM	0.554 µM and 0.845 µM	> 100 µM	3.29 µM and 3.86 µM	> 100 µM	0.164 µM and 0.219 µM	0.527 µM and 0.848 µM	0.455 µM and 0.558 µM	> 100 µM	0.995 µM and 0.999 µM	> 100 µM	12.2 µM and 15 µM	46.7 µM and > 100 µM	33.7 µM and 7.85 µM	> 100 µM	0.7 µM and 0.598 µM	> 100 µM	3.91 µM and 4.98 µM	> 100 µM
Clc1ccc(COC(Cn2ccnc2)c2ccc(Cl)cc2Cl)cc1 (configuration not stated)	1.04 µM	8.48 µM and 26.9 µM and 26 µM	0.787 µM	7.56 µM and 23.3 µM and 24.9 µM	2.08 µM	10.2 µM and 28.7 µM and 29.7 µM	1.23 µM	8.22 µM and 27.8 µM and 24.2 µM	2.04 µM	7.46 µM and 28.6 µM and 26 µM	0.282 µM	2.43 µM and 18.5 µM and 22.8 µM	2.5 µM	6.49 µM and 23.2 µM and 25.1 µM	2.68 µM	7.15 µM and 29 µM and 23.9 µM	2.5 µM	12.7 µM and 25.3 µM	2.69 µM	10.1 µM and 44.4 µM and 28.7 µM
CN1CCCN(CCNc2nccc(-c3c(-c4cccc(O)c4)nc4sccn34)n2)S1(=O)=O	10 µM and 8.06 µM	59.2 µM and > 84.4 µM	22.5 µM and 31.1 µM	75 µM and > 100 µM	11.1 µM and 14.4 µM	37.8 µM and 72.9 µM	5.31 µM and 3.4 µM	17.5 µM and 12.6 µM	8.99 µM and 11.9 µM	50.4 µM and > 51.1 µM	5.54 µM and 9.27 µM	27.2 µM and 42.1 µM	13.7 µM and 7.69 µM	75 µM and 99 µM	13 µM and 11.6 µM	64.6 µM and 73.2 µM	8.55 µM and 6.23 µM	75 µM and > 100 µM	4.41 µM and 4.72 µM	75 µM and > 75.9 µM
Cc1cc(N(CCNc2ccnc3cc(Cl)ccc23)Cc2ccc3c(c2)OCO3)nc(N2CCN(C)CC2)n1	1.77 µM	4.32 µM	3.26 µM	14.7 µM	6.39 µM	22.3 µM	2.43 µM	8.85 µM	2.01 µM	4.25 µM	1.85 µM	3.81 µM	2.73 µM	10.9 µM	1.81 µM	3.61 µM	3.77 µM	14.2 µM	2.65 µM	7.86 µM
CC(C)(C)OC(=O)NCC(C#N)CNC(=O)OC(C)(C)C	–	> 100 µM	–	> 100 µM	–	> 100 µM	–	> 100 µM	–	> 100 µM	–	> 100 µM	–	> 100 µM	–	> 100 µM	–	> 100 µM	–	> 100 µM
COc1cc(/C=C2\CN(C)CC3=C2Nc2nc(SC)[nH]c(=O)c2C3c2cc(OC)c(OC)c(OC)c2)cc(OC)c1OC (configuration not stated)	3.14 µM	13.1 µM	3.6 µM	> 100 µM	3.54 µM	15.8 µM	9.58 µM	21.5 µM	1.76 µM	4.14 µM	2.04 µM	4.69 µM	2.64 µM	6.72 µM	6.06 µM	18.9 µM	2.98 µM	15.5 µM	2.3 µM	5.4 µM
COC1/C=C/OC2(C)Oc3c(C)c(O)c4c(c3C2=O)C(=O)C=C(NC(=O)/C(C)=C\C=C\C(C)C(OC=O)C(C)C(O)C(C)C(OC(C)=O)C1C)C4=O (configuration not stated)	–	> 48.5 µM	–	49.2 µM	–	30.6 µM	–	41.3 µM	–	38.2 µM	–	6.33 µM	–	11.9 µM	–	30.4 µM	–	29.5 µM	–	42 µM
Cc1cc2c(cc1C)NC1=C(N2)OC(c2c[nH]c3ccc(COc4ccccc4)cc23)C1=O (configuration not stated)	–	67.1 µM	–	> 100 µM	–	> 100 µM	–	> 100 µM	–	> 100 µM	–	> 100 µM	–	> 100 µM	–	> 100 µM	–	> 100 µM	–	> 100 µM
COC(=O)c1ccc2c(c1)C(NC(C)=O)CCc1cc(OC)c(OC)c(OC)c1-2 (configuration not stated)	–	> 100 µM	–	3.71 µM	–	1.35 µM	–	4.27 µM	–	16.5 µM	–	0.074 µM	–	1.23 µM	–	> 100 µM	–	> 96.1 µM	–	3.23 µM
CCOC(=O)c1c(NC(=O)c2ccc(C(C)C)cc2)sc2c(CN(C)C)c(O)ccc12	1.95 µM	3.83 µM	1.89 µM	4.52 µM	3.22 µM	13.3 µM	1.86 µM	9.02 µM	2.59 µM	7.13 µM	2.01 µM	4.53 µM	3.52 µM	11.9 µM	3 µM	9.39 µM	4.53 µM	17.9 µM	1.88 µM	3.6 µM

— PubChem BioAssay (NCI)
